Legend:
Beas-2B cells [1] = experiment: Cell-based ELISA: binding of FITC-peptides to Beas-2B cells; conditions: 5 µM FITC-peptides, 4°C, 1 h, washed twice with PBS, cell-based ELISA (FITC fluorescence), FITC-ECP32–41 bound normalized to 100%, mean ± S.D., n = 4
Experimental: Cells (2×10^4/well) were seeded into 96-well black plate and incubated under a 5% CO2 atmosphere at 37°C for 24 h. Each well was then washed with 150 µl ice-cold PBS. To prevent non-specific antibody binding, BSA was used as a blocking agent, and PBS containing 2% (w/v) BSA was added to each well at 4°C and incubated for 1 h. The wells were then washed with 100 µl ice-cold PBS. FITC-conjugated peptides were diluted to 10, 20, or 100 µM in PBS and then, medium (95 µl) and a peptide/PBS solution (5 µl) were gently mixed, added into a well, and the plate was placed on ice for 1 h. Each well was then washed with 100 µl PBS and the FITC fluorescent intensity for each sample was measured using a fluorescence spectrophotometer (Wallac Victor II, Perkin Elmer, USA) and excitation and emission wavelengths of 485 nm and 521 nm respectively.

Beas-2B cells [2] = experiment: Membrane disruption assay (LDH leakage); format: cell-based; conditions: up to 100 µM, 37°C, 24 h, 0.1% Triton X-100 = 100% leakage, P>0.05, n = 3
Experimental: Lactate dehydrogenase (LDH) was used to quantify membrane disruption. The release of LDH from cells was measured by Promega CytoTox-ONE assay (Promega, USA). […] Cell samples were then exposed to different concentrations of ECP^32–41. After 24 h, 100 µl of extracellular medium was transferred to a black 96-well plate containing 100 µl of CytoTox-ONE reagent, incubated at RT for 10 min. Fluorescent intensity for each sample was measured using a fluorescence spectrophotometer (Wallac Victor II, Perkin Elmer, USA) and excitation and emission wavelengths of 540 nm and 590 nm respectively.

CHO pgsA-745 cells = experiment: Internalization into GAG-deficient CHO cells (flow cytometry and CLSM); format: cell-based, Chinese hamster; conditions: CHO pgsA745 cells, 5 µM FITC-ECP32–41, 37°C, 1 h
Experimental: (§1) Figure 3 HS-dependent ECP^32–-41 internalization. […] (B) Samples of wild-type and mutant CHO cells were each incubated with 5 µM FITC-ECP^32–41 at 37°C for 1 h and then subjected to flow cytometry. (C) Samples of wild-type and mutant CHO cells were incubated with 5 µM FITC-ECP^32–41 at 37°C for 1 h., then washed twice with 1 ml PBS, and fixed for CLSM. Nuclei were stained with Hoechst 34850. Scale bar: 20 µm. (D) Beas-2B cells were treated with heparinase I, heparinase III, or chondroitinase ABC for 2 h prior to incubation with 5 µM FITC-ECP^32–41 at 37°C for 1 h. […] Untreated cells served as the controls. The fluorescence of cells treated with FITC-ECP^32–41 was set to 100%. […] (E) Beas-2B cells were treated with heparinase I, heparinase III, or chondroitinase ABC for 2 h. […] Untreated cells served as the control. The fluorescence of the untreated cells was set to 100%.
(§2) Cells (3.0×10^5/well) were added into six-well plates and cultured in the indicated medium. After 24 h, each FITC-peptide, dissolved in medium, was added into a well and the samples incubated for 1 h. Cells were then harvested, washed, and suspended in PBS. The fluorescent intensities of the cell samples were measured using a FACSCalibur flow cytometer (BD Biosciences, Franklin Lakes, NJ) and excitation and emission wavelengths of 488 nm and 515–545 nm respectively. […]

Beas-2B cells [3] = experiment: Internalization after heparinase / chondroitinase ABC depletion of GAGs; format: cell-based; conditions: 10 U/ml chondroitinase ABC, 37°C, 2 h, then 5 µM FITC-ECP32–41, 37°C, 1 h; flow cytometry; n = 3
Experimental: as §1, §2

CHO-K1 cells = experiment: Internalization into wild-type CHO cells (flow cytometry and CLSM); format: cell-based, Chinese hamster; conditions: 5 µM FITC-ECP32–41, 37°C, 1 h
Experimental: as §1, §2

Beas-2B cells [4] = experiment: Cell viability assay (MTT)
Experimental: Beas-2B cells were grown in serum-free medium in the presence of ECP^32–41 at indicated concentrations for 24 h. (A) The cytotoxic effect of ECP^32–41 was measured by MTT assay. The cell viability of untreated cells was set to 100%. Cells treated with 0.1% Triton X-100 was used as a positive control. (B) The membrane disruption by ECP^32–41 was measured by LDH assay. LDH released from cells lysed with 0.1% Triton X-100 in medium was defined as 100% leakage and LDH released from untreated cells was set as 0% leakage.
Beas-2B cells were incubated with 10 µM eGFP or eGFP-ECP^32–41 at 37°C for 1 h. The cells were then washed with 500 µl PBS, trypsinized at 37°C for 15 min, suspended in 500 µl PBS, and subjected to flow cytometry. (B) Beas-2B cells were treated with the indicated concentrations of TAT^47–57, ECP^32–41, KLA, KLA-TAT^47–57 or KLA-ECP^32–41 at 37°C for 24 h, and their cytotoxic effects were determined by the MTT assay. Cytotoxic effects of (C) KLA-TAT^47–57 and (D) KLA-ECP^32–41, at the indicated concentrations, on Beas-2B, A549, Caco-2, and AGS cells were assessed by the MTT assay after incubation at 37°C for 24 h. The cell viability untreated cells was set to 100%. The result is expressed as the mean ± S.D., n = 3.
The effects of the peptides on cell viability were determined colourimetrically using 3-(4,5-dimethylthiazol-2-yl)-2,5-diphenyltetrazolium bromide (MTT) (US Biological). Cells (1.0×10^4/well) were seeded into the wells of 96-well plates and incubated overnight. Cell samples were then exposed to different concentrations of TAT^47–57, ECP^32–41, KLA, KLA-TAT^47–57 or KLA-ECP^32–41. After 24 h, 100 µl of 0.5 mg/ml MTT in medium was added into each well, and the cells were incubated at 37°C for 3 h. The incubation medium was removed, and the remaining purple crystal formazan was dissolved in dimethylsulphoxide. Cells treated with 0.1% Triton X-100 was used as a positive control for cell viability. A540 values were measured using a multiwall plate reader (Molecular Devices).

Beas-2B cells [5] = experiment: Confocal laser-scanning microscopy (CLSM) of FITC-peptide internalization; format: cell-based; conditions: 5 µM peptide, 37°C, 5 and 60 min
Experimental: (§3) Figure 1 Internalization of ECP^32–41 and EDN^32–41. (A) Beas-2B cells were incubated with 1, 5, 10, or 20 µM FITC-ECP^32–41, FITC-EDN^32–41, or FITC at 37°C for 1 h. […] (B) Beas-2B cells were incubated with 5 µM FITC-ECP^32–41, FITC-EDN^32–41, or FITC at 37°C for 5, 10, 30, or 60 min. The cells were then treated as described in (A) and subjected to flow cytometry. The results in (A) and (B) are expressed as the mean ± standard deviation (S.D.), n = 3. (C) Beas-2B cells were incubated with 5 µM FITC-ECP^32–41, FITC-EDN^32–41, or FITC at 37°C for 5 or 60 min before CLSM. Nuclei were stained with Hoechst 34850. Scale bar: 20 µm.
Cells were cultured on coverslips (1.0×10^4/coverslip) in indicated medium. After 24 h, cell samples were each incubated at 37°C for 1 h with an FITC-peptide. The cells were then washed twice with PBS, fixed with 2% (w/v) paraformaldehyde and incubated, first in PBS for 15 min, then with 50 mM NH4Cl in PBS for 10 min, and finally permeabilised with 0.5% (v/v) Triton-X-100 at 25°C for 5 min. Nuclei were stained with Hoechst 33342 Fluorescent Stain, (Sigma-Aldrich) during the final 5 min of incubation. Cells were then washed twice with 0.05% Triton-X-100, once with PBS, and the coverslips were mounted in a Vectashield anti-fade mounting medium (Vector Labs). […]

CHO-pgsD677 cells = experiment: Cell-based ELISA: binding to HS-deficient CHO cells; design: species or system Chinese hamster; conditions: CHO-pgsD677 cells (lack HS), 5 µM FITC-ECP32–41, 4°C, 1 h, CHO-K1 normalized to 100%, n = 3
Experimental: (§4) Cell-membrane GAGs including HS, CS/DS, and HA are necessary for CPP internalization, [6]. To assess the effect of GAGs on ECP^32–41 cellular binding ability, soluble GAGs including LMWH, CSC, and HA were used as competitors to inhibit the attachment of ECP^32–41 to Beas-2B cells. […] To clarify the roles of cell-surface HS and CS, the binding of ECP^32–41 to wild-type and two mutant strains of Chinese hamster ovary (CHO) cells was assessed by ELISA. […] CHO-pgsA745 cells are deficient in xylosyltransferase so that no GAG was present on the surface. […] GAGs, and especially HSPGs, are therefore crucial for the initial interaction of ECP^32–41 with cell surfaces.
(§5) Figure 2 Cell-surface GAG-dependent binding of ECP^32–41. […] After washed twice with PBS, cells were subjected to ELISA. […] (B) CHO cells were incubated with 5 µM FITC-ECP^32–41 at 4°C for 1 h, washed twice with PBS, and subjected to ELISA. The amount of FITC-ECP^32–41 bound to CHO-K1 cells was normalized to 100%.
(§6) Cells (2×10^4/well) were seeded into 96-well black plate and incubated under a 5% CO2 atmosphere at 37°C for 24 h. Each well was then washed with 150 µl ice-cold PBS. […] Each well was then washed with 100 µl PBS and the FITC fluorescent intensity for each sample was measured using a fluorescence spectrophotometer (Wallac Victor II, Perkin Elmer, USA) and excitation and emission wavelengths of 485 nm and 521 nm respectively.

[6] = Circular dichroism spectroscopy; format: physicochemical; conditions: data not shown
Beas-2B cells [7] = experiment: Flow cytometry: internalization of FITC-peptides into Beas-2B cells; format: cell-based; conditions: 5 µM FITC-peptides, 37°C, 1 h, washed, trypsinized 37°C 15 min, cells treated with ECP32–41 set as 100%, mean ± S.D., n = 4
Experimental: Internalization of FITC-ECP^32–41 and FITC-EDN^32–41 was measured as the median ﬂuorescence intensity (MFI) of 6.0×10^5 Beas-2B cells that had been treated with one of the FITC-labelled peptides (1 to 20 µM) at 37°C for 1 h, and then treated with trypsin to remove surface-bound peptides. […] When Beas-2B cells were treated with 5 µM of a FITC-peptide at 37°C, the fluorescent signal for FITC-ECP^32–41 increased within 5 min, and reached plateau at 30 min (Figure 1B).
as §3
Cells (3.0×10^5/well) were added into six-well plates and cultured in the indicated medium. […] The fluorescent intensities of the cell samples were measured using a FACSCalibur flow cytometer (BD Biosciences, Franklin Lakes, NJ) and excitation and emission wavelengths of 488 nm and 515–545 nm respectively. […]

CHO-pgsA745 cells = experiment: Cell-based ELISA: binding to GAG-deficient CHO cells; design: species or system Chinese hamster; conditions: CHO-pgsA745 cells (no GAG), 5 µM FITC-ECP32–41, 4°C, 1 h, CHO-K1 normalized to 100%, n = 3
Experimental: as §4, §5, §6

CHO pgsD-677 cells = experiment: Internalization into HS-deficient CHO cells (flow cytometry and CLSM); format: cell-based, Chinese hamster; conditions: CHO pgsD677 cells, 5 µM FITC-ECP32–41, 37°C, 1 h
Experimental: as §1, §2

Beas-2B cells [8] = experiment: Cell-surface HS / CS after enzyme treatment (anti-HS or anti-CS antibody, flow cytometry); format: cell-based; conditions: 2 h, untreated cells 100%, n = 3; for decrease of the amount of HS on Beas-2B cell surfaces: 5 U/ml heparinase I or 2.4 U/ml heparinase III, anti-HS monoclonal antibody
Experimental: as §1
To verify that selective cell-surface polysaccharides had been enzymatically removed, the treated cells were subsequently incubated with anti-HS or anti-CS monoclonal antibodies. As expected, heparinase I and heparinase III had decreased the amount of HS on Beas-2B cell surfaces by 48% and 61%, respectively (Figure 3E, left panel), and chondroitinase ABC removed 72% of the cell-surface CS (Figure 3E, right panel). The HS that remained on Beas-2B cell surface accounted for the observed ECP^32–41 internalization into heparinase-treated cells. Conversely, even though 70% of the initial cell-surface CS had been removed, ECP^32–41 internalization was hardly affected–thus as concluded above, HS, rather than CS, is responsible for ECP^32–41 internalization.
Beas-2B cells (3.0×10^5/well) were incubated with RPMI 1640 medium overnight in six-well plates and then treated with 5 U/ml of heparinase I, 2.4 U/ml of heparinase III, or 10 U/ml of chondroitinase ABC (Sigma-Aldrich) at 37°C for 2 h. After a PBS wash, the cells were incubated with FITC-ECP^32–41 and assayed for internalization of the peptide by flow cytometry as described above.

NYRWRCKNQN [ECP^32–41]
Binding (%) (Beas-2B cells [1]): 100% | LDH levels (membrane disruption), treated versus untreated cells (Beas-2B cells [2]): no significant changes | internalization monitored by CLSM (CHO pgsA-745 cells): but not for CHO pgsD677 or pgsA745 cells | effect of CS depletion (chondroitinase ABC) on internalization (Beas-2B cells [3]): little effect | internalization monitored by CLSM (CHO-K1 cells): clearly observed for CHO-K1 cells | cell viability (MTT) at 100 µM (Beas-2B cells [4]): neither peptide affected cell viability | intracellular fluorescence by CLSM (Beas-2B cells [5]): clearly detected | reduction of binding versus CHO-K1 cells (CHO-pgsD677 cells): 31% | secondary structure by circular dichroism spectroscopy [6]: random coil | Penetrating (%) (Beas-2B cells [7]): 100% | reduction of binding versus CHO-K1 cells (CHO-pgsA745 cells): 52% | internalization monitored by CLSM (CHO pgsD-677 cells): but not for CHO pgsD677 or pgsA745 cells

chondroitinase ABC
cell-surface CS removed (Beas-2B cells [8]; 10 U/ml chondroitinase ABC, anti-CS monoclonal antibody): 72%

heparinase I
decrease of the amount of HS on Beas-2B cell surfaces (Beas-2B cells [8]): 48%

heparinase III
decrease of the amount of HS on Beas-2B cell surfaces (Beas-2B cells [8]): 61%
